# Read-outs that look alike come from different tables or passages of the source.
# Legend:
# HIV-1 (strain 3B) = assay: HIV assay: reversal of the cytopathic effect of HIV infection in MT4 cells (propidium iodide dye uptake); format: cell-based; conditions: Human immunodeficiency virus 1, 120 h, Anti-HIV-1 activity, day 5 post infection
# Experimental: Anti-HIV activity of compounds of the invention was determined using the method of Averett D.R., J.Virol. Methods, […], 23, 263-276, by measuring the ability of the compound to reverse the cytopathic effect of HIV infection. This was determined by a quantitative assessment of cell growth monitored at the fifth day post infection by a propidium iodide dye uptake test. MT4 cells were incubated with 100XTCID50 of HIV-1 (strain 3B) or HIV-2 (strain ZY) for one hour prior to addition of the compound in six different concentrations varying from 2 to 200 µM. The cells were allowed to incubate for five days at 37°C. On day 5, NP-40, a detergent, was added to a final concentration of 0.5% immediately prior to analysis. Cell number was determined using a method which measures the fluorescence of a dye (propidium iodide) which binds to DNA. Since the amount of DNA is directly proportional to cell number, this fluorescence assay is an indication of cell growth. While uninfected cells double in cell number several times during the five days duration of the assay, HIV-infected cells grow very little, if at all. A compound which reverses the cytopathic effect of HIV would allow for rapid cell growth, approaching that of the mock-infected cells. […]
# male Lewis rats = assay: Carrageenan pleurisy assay (4 hour); format: in vivo; conditions: 4 h after carrageenan, relative to solvent (vehicle) control animals; for % INHIBITION CELLS: inflammatory cells (neutrophils) in pleural exudate; for % INHIBITION EDEMA: pleural edema
# Experimental: The antiinflammatory activity of compounds of the invention was determined by the procedure of Vinegar, R. et al., Proc. Soc. Exp. Biol. Med., 1981, 168, 24-32, using male Lewis rats of 150 ± 20 grams. The carrageenan dose was 0.075 mg/rat. Pleural exudate was harvested four hours after injection of carageenan. Acute antiinflammatory activity was determined by inhibition of pleural edema and infammatory cells (neutrophils) from a negative (vehicle) control group.
# Acute Anti-inflammatory Activity of Compounds in the 4 Hour Carrageenan Pleurisy Assay in Rats
# [1] = Cytotoxicity: inhibition of cell growth; format: cell-based; conditions: human
# Experimental: Compounds of the invention were tested for the inhibition of growth of human T-cells (Molt 4), B-cells (IM9) and CEM cells by the method of Averett, D.R., J. Virol. Methods, 23, 263-276 (1989). Cells were grown as described in Prus, K.L., et al., Cancer Res., 50(6), 1817-1821 (1990).
SMILES,IC50 (HIV-1 (strain 3B)) [nM],% INHIBITION CELLS (male Lewis rats; @ 25 MG/KG (IP)) [%],% INHIBITION EDEMA (male Lewis rats; @ 25 MG/KG (IP)) [%],% INHIBITION CELLS (male Lewis rats; @ 50 MG/KG (PO)) [%],% INHIBITION EDEMA (male Lewis rats; @ 50 MG/KG (PO)) [%],"viability at 100 µM ([1]; cem cells, read-out: % of Cells Surviving at 100 µM) [%]","viability at 100 µM ([1]; im9 cells, read-out: % of Cells Surviving at 100 µM) [%]","viability at 100 µM ([1]; molt 4 cells, Molt4, read-out: % of Cells Surviving at 100 µM) [%]"
"COc1cccc(S(=O)(=O)c2cccc(N)c2C#N)c1 [Example 2, 2-Amino-6-[(3-methoxyphenyl)sulfonyl]benzonitrile]",920 ± 40,,,,,,,
"Cc1cc(C)cc(S(=O)(=O)c2cccc(N)c2C#N)c1 [Example 4, 2-Amino-6-[(3,5-dimethylphenyl)sulfonyl]benzontrile]",14 ± 1,0,5,29,31,70,97,91
